Measured values: PubChem BioAssay AID2060902 (Molecular Pharmacology Branch, DTP, NCI, 2025)

System: 485368-065-R3-J5-PDC spheroids with HUVEC/MSC, viability
Test: Anticancer human tumor 485368-065-R3-J5-PDC patient-derived pancreatic carcinoma cell line growth inhibition [RAS]
Details: for IC50: curve of first compound; for viability, T/C: stronger effect = lower value
Outline: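 Tumour cells grown as complex spheroids with HUVEC endothelial cells and mesenchymal stem cells, treated with RAS pathway inhibitor combinations. Each agent spans half-log steps from near clinical Cmax, or 10 microM where Cmax is unknown.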

[1] = second compound 0.000949 µM, first compound 0.0316 µM
[2] = second compound 0.000949 µM, first compound 0.1 µM
[3] = second compound 0.000949 µM, first compound 0.316 µM
[4] = second compound 0.000949 µM, first compound 1 µM
[5] = second compound 0.003 µM, first compound 0.0316 µM
[6] = second compound 0.003 µM, first compound 0.1 µM
[7] = second compound 0.003 µM, first compound 0.316 µM
[8] = second compound 0.003 µM, first compound 1 µM
[9] = second compound 0.00949 µM, first compound 0.0316 µM
[10] = second compound 0.00949 µM, first compound 0.1 µM
[11] = second compound 0.00949 µM, first compound 0.316 µM
[12] = second compound 0.00949 µM, first compound 1 µM
[13] = second compound 0.03 µM, first compound 0.0316 µM
[14] = second compound 0.03 µM, first compound 0.1 µM
[15] = second compound 0.03 µM, first compound 0.316 µM
[16] = second compound 0.03 µM, first compound 1 µM
[17] = second compound 0.0949 µM, first compound 0.0316 µM
[18] = second compound 0.0949 µM, first compound 0.1 µM
[19] = second compound 0.0949 µM, first compound 0.316 µM
[20] = second compound 0.0949 µM, first compound 1 µM
[21] = second compound 0.3 µM, first compound 0.0316 µM
[22] = second compound 0.3 µM, first compound 0.1 µM
[23] = second compound 0.3 µM, first compound 0.316 µM
[24] = second compound 0.3 µM, first compound 1 µM
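Further: spheroids exposed to agents for seven days before readout.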

**Q.** Which IC50 (second compound 0.000949 µM) does the source give for `CC(=O)OC12COC1CC(O)C1(C)C(=O)C(O)C3=C(C)C(OC(=O)C(O)C(NC(=O)OC(C)(C)C)c4ccccc4)CC(O)(C(OC(=O)c4ccccc4)C21)C3(C)C` (centres undefined) + CCn1c(-c2cccnc2C(C)OC)c2c3cc(ccc31)N1CCOC(CC(NC(=O)C(C(C)C)N(C)C(=O)C3(F)CCN(C(=O)C#CC(C)(C)N(C)C)CC3)C(=O)N3CCCC(N3)C(=O)OCC(C)(C)C2)C1 here?
**A.** < 31.6 nM

**Q.** And the IC50 (second compound 0.003 µM)?
**A.** < 31.6 nM

**Q.** And the IC50 (second compound 0.00949 µM)?
**A.** < 31.6 nM

**Q.** What about the IC50 (second compound 0.03 µM) of the same compound?
**A.** < 31.6 nM

**Q.** What about the IC50 (second compound 0.0949 µM) of the same compound?
**A.** < 31.6 nM

**Q.** And the IC50 (second compound 0.3 µM)?
**A.** < 31.6 nM

**Q.** What about the viability, T/C [1] of the same compound?
**A.** 12.6%

**Q.** What about the viability, T/C [2] of the same compound?
**A.** 14.3%

**Q.** What about the viability, T/C [3] of the same compound?
**A.** 13.1%

**Q.** What about the viability, T/C [4] of the same compound?
**A.** 13.9%

**Q.** And the viability, T/C (second compound 0.000949 µM, first compound 3.16 µM)?
**A.** 21.4%

**Q.** And the viability, T/C (second compound 0.000949 µM, first compound 10 µM)?
**A.** 25.7%

**Q.** What about the viability, T/C [5] of the same compound?
**A.** 15.6%

**Q.** And the viability, T/C [6]?
**A.** 13.6%

**Q.** What about the viability, T/C [7] of the same compound?
**A.** 14%

**Q.** What about the viability, T/C [8] of the same compound?
**A.** 16.9%

**Q.** And the viability, T/C (second compound 0.003 µM, first compound 3.16 µM)?
**A.** 18.9%

**Q.** And the viability, T/C (second compound 0.003 µM, first compound 10 µM)?
**A.** 25.5%

**Q.** And the viability, T/C [9]?
**A.** 13.2%

**Q.** What about the viability, T/C [10] of the same compound?
**A.** 15.1%

**Q.** And the viability, T/C [11]?
**A.** 14%

**Q.** What about the viability, T/C [12] of the same compound?
**A.** 22.6%

**Q.** What about the viability, T/C (second compound 0.00949 µM, first compound 3.16 µM) of the same compound?
**A.** 21.1%

**Q.** What about the viability, T/C (second compound 0.00949 µM, first compound 10 µM) of the same compound?
**A.** 27.4%

**Q.** What about the viability, T/C [13] of the same compound?
**A.** 12.2%

**Q.** What about the viability, T/C [14] of the same compound?
**A.** 18.4%

**Q.** What about the viability, T/C [15] of the same compound?
**A.** 19.4%

**Q.** What about the viability, T/C [16] of the same compound?
**A.** 16.6%

**Q.** And the viability, T/C (second compound 0.03 µM, first compound 3.16 µM)?
**A.** 21.1%

**Q.** And the viability, T/C (second compound 0.03 µM, first compound 10 µM)?
**A.** 26%

**Q.** And the viability, T/C [17]?
**A.** 10.7%

**Q.** What about the viability, T/C [18] of the same compound?
**A.** 16.4%

**Q.** What about the viability, T/C [19] of the same compound?
**A.** 14.5%

**Q.** And the viability, T/C [20]?
**A.** 12.2%

**Q.** And the viability, T/C (second compound 0.0949 µM, first compound 3.16 µM)?
**A.** 21.3%

**Q.** And the viability, T/C (second compound 0.0949 µM, first compound 10 µM)?
**A.** 27.5%

**Q.** And the viability, T/C [21]?
**A.** 13.1%

**Q.** What about the viability, T/C [22] of the same compound?
**A.** 16.8%

**Q.** What about the viability, T/C [23] of the same compound?
**A.** 15.9%

**Q.** And the viability, T/C [24]?
**A.** 17.6%

**Q.** What about the viability, T/C (second compound 0.3 µM, first compound 3.16 µM) of the same compound?
**A.** 27.7%

**Q.** What about the viability, T/C (second compound 0.3 µM, first compound 10 µM) of the same compound?
**A.** 27.5%

**Q.** How did the IC50 (second compound 0.000949 µM) turn out when `Nc1ccn(C2OC(CO)C(O)C2(F)F)c(=O)n1` (centres undefined) + CCn1c(-c2cccnc2C(C)OC)c2c3cc(ccc31)N1CCOC(CC(NC(=O)C(C(C)C)N(C)C(=O)C3(F)CCN(C(=O)C#CC(C)(C)N(C)C)CC3)C(=O)N3CCCC(N3)C(=O)OCC(C)(C)C2)C1 was run?
**A.** 7.04 nM

**Q.** What about the IC50 (second compound 0.003 µM) of the same compound?
**A.** 6.7 nM

**Q.** And the IC50 (second compound 0.00949 µM)?
**A.** 9.21 nM

**Q.** What about the IC50 (second compound 0.03 µM) of the same compound?
**A.** 6.7 nM

**Q.** What about the IC50 (second compound 0.0949 µM) of the same compound?
**A.** 6.84 nM

**Q.** What about the IC50 (second compound 0.3 µM) of the same compound?
**A.** 6.66 nM

**Q.** What about the viability, T/C (second compound 0.000949 µM, first compound 0.00316 µM) of the same compound?
**A.** 94.9%

**Q.** What about the viability, T/C (second compound 0.000949 µM, first compound 0.01 µM) of the same compound?
**A.** 30.4%

**Q.** And the viability, T/C [1]?
**A.** 11.6%

**Q.** And the viability, T/C [2]?
**A.** 11%

**Q.** What about the viability, T/C [3] of the same compound?
**A.** 14.4%

**Q.** What about the viability, T/C [4] of the same compound?
**A.** 11.8%

**Q.** And the viability, T/C (second compound 0.003 µM, first compound 0.00316 µM)?
**A.** 89.2%

**Q.** And the viability, T/C (second compound 0.003 µM, first compound 0.01 µM)?
**A.** 29.2%

**Q.** What about the viability, T/C [5] of the same compound?
**A.** 10.5%

**Q.** What about the viability, T/C [6] of the same compound?
**A.** 9.86%

**Q.** What about the viability, T/C [7] of the same compound?
**A.** 13.8%

**Q.** And the viability, T/C [8]?
**A.** 13.4%

**Q.** And the viability, T/C (second compound 0.00949 µM, first compound 0.00316 µM)?
**A.** 94.2%

**Q.** What about the viability, T/C (second compound 0.00949 µM, first compound 0.01 µM) of the same compound?
**A.** 46.6%

**Q.** What about the viability, T/C [9] of the same compound?
**A.** 11.3%

**Q.** What about the viability, T/C [10] of the same compound?
**A.** 11.4%

**Q.** What about the viability, T/C [11] of the same compound?
**A.** 11.3%

**Q.** And the viability, T/C [12]?
**A.** 12.1%

**Q.** And the viability, T/C (second compound 0.03 µM, first compound 0.00316 µM)?
**A.** 89.7%

**Q.** And the viability, T/C (second compound 0.03 µM, first compound 0.01 µM)?
**A.** 28.8%

**Q.** And the viability, T/C [13]?
**A.** 12.1%

**Q.** And the viability, T/C [14]?
**A.** 12.9%

**Q.** What about the viability, T/C [15] of the same compound?
**A.** 11.7%

**Q.** And the viability, T/C [16]?
**A.** 10.4%

**Q.** What about the viability, T/C (second compound 0.0949 µM, first compound 0.00316 µM) of the same compound?
**A.** 96.9%

**Q.** And the viability, T/C (second compound 0.0949 µM, first compound 0.01 µM)?
**A.** 26.8%

**Q.** What about the viability, T/C [17] of the same compound?
**A.** 11.9%

**Q.** And the viability, T/C [18]?
**A.** 9.81%

**Q.** What about the viability, T/C [19] of the same compound?
**A.** 12.7%

**Q.** And the viability, T/C [20]?
**A.** 10.6%

**Q.** What about the viability, T/C (second compound 0.3 µM, first compound 0.00316 µM) of the same compound?
**A.** 94%

**Q.** And the viability, T/C (second compound 0.3 µM, first compound 0.01 µM)?
**A.** 25.7%

**Q.** What about the viability, T/C [21] of the same compound?
**A.** 12.1%

**Q.** And the viability, T/C [22]?
**A.** 11%

**Q.** What about the viability, T/C [23] of the same compound?
**A.** 11.5%

**Q.** What about the viability, T/C [24] of the same compound?
**A.** 9.33%
